Data set [1] concerns the target Muscarinic acetylcholine receptor M3 (Homo sapiens, UniProt P20309). The data set can be described thus: Antagonist activity at human muscarinic M3 receptor expressed in PathHunter U2OS CHRM3 beta-arrestin cells preincubated for 30 mins followed by agonist addition at 6 times EC80 and measured after 90 to 180 mins by PathHunter assay. The class given is functional, cell-based.

In data set [2] the target is Voltage-gated inwardly rectifying potassium channel KCNH2 (Homo sapiens, UniProt Q12809). Briefly: Inhibition of hERG in HEK293 cells measured after 5 mins by patch-clamp assay. For orientation: Block of hERG is tested as a sign of cardiac risk.
Voltage-gated inwardly rectifying potassium channel KCNH2, sequence (Q12809 whole entry): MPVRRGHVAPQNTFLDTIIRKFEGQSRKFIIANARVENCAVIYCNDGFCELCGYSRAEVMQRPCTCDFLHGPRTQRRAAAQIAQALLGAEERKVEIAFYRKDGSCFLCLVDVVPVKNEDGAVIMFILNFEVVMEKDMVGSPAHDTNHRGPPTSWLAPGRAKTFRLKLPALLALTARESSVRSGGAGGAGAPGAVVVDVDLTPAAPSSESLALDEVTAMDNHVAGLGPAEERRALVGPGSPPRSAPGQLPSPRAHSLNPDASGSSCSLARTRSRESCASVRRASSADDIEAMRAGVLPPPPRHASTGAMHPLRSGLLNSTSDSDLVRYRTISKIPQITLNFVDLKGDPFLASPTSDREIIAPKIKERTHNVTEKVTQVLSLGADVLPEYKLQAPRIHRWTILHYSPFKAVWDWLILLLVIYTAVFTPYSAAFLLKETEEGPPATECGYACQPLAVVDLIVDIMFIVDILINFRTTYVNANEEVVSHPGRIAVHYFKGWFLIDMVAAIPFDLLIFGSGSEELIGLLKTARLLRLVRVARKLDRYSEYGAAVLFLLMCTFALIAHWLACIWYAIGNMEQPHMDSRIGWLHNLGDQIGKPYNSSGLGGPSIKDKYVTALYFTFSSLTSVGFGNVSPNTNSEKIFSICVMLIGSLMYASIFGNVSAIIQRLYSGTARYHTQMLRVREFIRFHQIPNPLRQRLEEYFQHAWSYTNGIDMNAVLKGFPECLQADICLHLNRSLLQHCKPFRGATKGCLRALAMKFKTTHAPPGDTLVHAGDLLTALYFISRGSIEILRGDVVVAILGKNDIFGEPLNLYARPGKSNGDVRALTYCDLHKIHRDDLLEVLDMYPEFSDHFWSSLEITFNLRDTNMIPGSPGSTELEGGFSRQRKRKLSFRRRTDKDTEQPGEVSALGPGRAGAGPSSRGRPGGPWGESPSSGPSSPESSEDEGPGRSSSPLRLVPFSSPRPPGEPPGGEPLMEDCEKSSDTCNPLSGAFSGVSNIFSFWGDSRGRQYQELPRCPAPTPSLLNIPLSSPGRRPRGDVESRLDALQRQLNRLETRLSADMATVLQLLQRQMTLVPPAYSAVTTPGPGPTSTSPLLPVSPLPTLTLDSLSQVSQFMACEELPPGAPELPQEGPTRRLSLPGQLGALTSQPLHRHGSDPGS
Data set [3] addresses Histamine H1 receptor (Homo sapiens, UniProt P35367). The data set can be described thus: Antagonist activity at human H1 receptor expressed in PathHunter CHO-K1 HRH1 beta-arrestin cells preincubated for 30 mins followed by agonist addition at 6 times EC80 and measured after 90 to 180 mins by PathHunter assay. It is filed as functional, cell-based.
Data set [4] in a line: Cmax in male Sprague-Dawley rat plasma at 10 mg/kg, IG administered as single dose. It is filed as ADME, organism-based. The following applies: po.
Data set [5] in a line: Cmax in female Sprague-Dawley rat brain at 10 mg/kg, IG administered as single dose. It is filed as ADME, organism-based. The following applies: po.
Data set [6] can be described thus: Cmax in female Sprague-Dawley rat plasma at 10 mg/kg, IG administered as single dose. It is filed as ADME, organism-based. The following applies: po.
Data set [7] is described as follows: Cmax in male Sprague-Dawley rat brain at 10 mg/kg, IG administered as single dose. It is filed as ADME, organism-based. As to conditions: po.
Data set [8] in a line: Apparent permeability across basolateral to apical side in human Caco-2 cells at 5 uM measured at 60 mins. It is filed as ADME, cell-based. On the technique in general: Caco-2 cells form a polarised layer with tight junctions and transporters.
The nature of data set [9]: Apparent permeability across apical to basolateral side in human Caco-2 cells at 5 uM measured at 60 mins. It is filed as ADME, cell-based.
Data set [10] can be described thus: Efflux ratio of apparent permeability across basolateral to apical over apical to basolateral side in human Caco-2 cells at 5 uM measured at 60 mins. It is filed as ADME, cell-based.

The structures appear in SMILES notation. pIC50: −log10 of the molar value. A value given as a limit tells only on which side of the number the result lay.

Muscarinic acetylcholine receptor M3, sequence (P20309 whole entry): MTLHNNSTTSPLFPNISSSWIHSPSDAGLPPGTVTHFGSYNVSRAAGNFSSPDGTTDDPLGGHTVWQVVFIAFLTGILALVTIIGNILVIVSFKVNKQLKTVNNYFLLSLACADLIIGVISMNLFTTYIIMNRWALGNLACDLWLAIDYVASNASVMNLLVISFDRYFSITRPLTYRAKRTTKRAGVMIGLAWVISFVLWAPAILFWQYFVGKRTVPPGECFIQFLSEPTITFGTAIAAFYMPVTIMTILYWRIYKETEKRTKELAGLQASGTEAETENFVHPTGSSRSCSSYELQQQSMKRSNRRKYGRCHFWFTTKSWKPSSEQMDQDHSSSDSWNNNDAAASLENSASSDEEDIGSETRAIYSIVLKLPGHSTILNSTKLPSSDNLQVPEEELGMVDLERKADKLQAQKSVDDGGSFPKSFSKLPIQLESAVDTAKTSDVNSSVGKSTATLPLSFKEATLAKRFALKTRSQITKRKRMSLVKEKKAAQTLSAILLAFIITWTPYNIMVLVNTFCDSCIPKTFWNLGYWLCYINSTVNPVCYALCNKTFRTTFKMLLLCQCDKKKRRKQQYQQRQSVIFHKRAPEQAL
Histamine H1 receptor, sequence (P35367 whole entry): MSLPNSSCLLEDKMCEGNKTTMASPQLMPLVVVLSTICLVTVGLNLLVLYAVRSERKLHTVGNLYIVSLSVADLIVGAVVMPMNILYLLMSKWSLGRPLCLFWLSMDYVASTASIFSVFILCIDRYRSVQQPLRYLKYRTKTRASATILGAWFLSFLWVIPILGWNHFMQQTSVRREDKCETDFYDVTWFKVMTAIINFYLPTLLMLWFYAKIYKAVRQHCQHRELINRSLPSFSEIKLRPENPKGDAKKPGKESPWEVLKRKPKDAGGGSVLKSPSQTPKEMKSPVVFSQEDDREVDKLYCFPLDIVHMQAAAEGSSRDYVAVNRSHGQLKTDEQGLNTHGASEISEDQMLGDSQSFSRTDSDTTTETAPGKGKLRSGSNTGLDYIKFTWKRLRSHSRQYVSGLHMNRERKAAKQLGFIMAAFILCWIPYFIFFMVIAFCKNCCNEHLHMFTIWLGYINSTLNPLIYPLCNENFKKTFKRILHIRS

As a reminder, the pIC50 is −log10 of the IC50, conventionally taken in molar units. Low values mean a high IC50, high ones a low IC50. As to `O=C(CCO)N1CCC(=C2c3ccc(Cl)cc3CCc3cccnc32)CC1`, in data set [1], the pIC50 is less than 5.00.

As to `CC(C)(C(=O)O)c1ccc(CCN2CCC(=C3c4ccc(Cl)cc4CCc4cccnc43)CC2)cc1`, the negative logarithm of the IC50 (pIC50) in [1] is less than 5.00; in data set [2], less than 4.52. With `CC(C)(C(=O)O)c1cccc(CC(O)CN2CCC(=C3c4ccc(Cl)cc4CCc4cccnc43)CC2)c1` (centres undefined), the results for the negative logarithm of the IC50 (pIC50) in data set [3] and in data set [1] were 7.24 and less than 5.00, respectively.

Turning to `O=C(O)CC(O)CN1CCC(=C2c3ccc(Cl)cc3CCc3cccnc32)CC1` (centres undefined), the pIC50 in data set [3] is 6.90; in data set [1], less than 5.00; in data set [2] it was less than 4.52. For `CC(C)(C(=O)O)c1ccc(CCCN2CCC(=C3c4ccc(Cl)cc4CCc4cccnc43)CC2)cc1`, the pIC50 was less than 5.00 in [1] and less than 4.52 in [2]. In the case of `OC[C@H](O)CN1CCC(=C2c3ccc(Cl)cc3CCc3cccnc32)CC1`, the pIC50 in data set [1] was less than 5.00; in [2] it was 5.58. For `O=C(O)c1ccc(CCCN2CCC(=C3c4ccc(Cl)cc4CCc4cccnc43)CC2)cc1`, the pIC50 in data set [1] is less than 5.00. `CC(C)(C(=O)O)c1cccc(NCCN2CCC(=C3c4ccc(Cl)cc4CCc4cccnc43)CC2)c1` gave a pIC50 in data set [1] of less than 5.00. For `CC(C)(C(=O)O)c1ccc(CN2CCC(=C3c4ccc(Cl)cc4CCc4cccnc43)CC2)cc1`, the results for the pIC50 in [1] and in [2] were less than 5.00 and 4.74, respectively.

In data set [1], `CC(C)(C(=O)O)c1ccc(CCCN2CCC(=C3c4ccc(Cl)cc4CCc4cccnc43)CC2)nc1` had a pIC50 of less than 5.00. Consider `NC(=O)c1cn(CCN2CCC(=C3c4ccc(Cl)cc4CCc4cccnc43)CC2)nn1`, for which the pIC50 is less than 5.00 in data set [1] and 5.20 in data set [2].

Compound `CC(C)(C(=O)O)c1ccccc1CCCN1CCC(=C2c3ccc(Cl)cc3CCc3cccnc32)CC1` showed a pIC50 in data set [1] of less than 5.00. For `CC(C)(C(=O)O)c1ccc(CCCN2CCC(=C3c4ccc(Cl)cc4CCc4cccnc43)CC2)c(F)c1`, the figures for the pIC50 in data set [1] and in data set [2] were less than 5.00 and 4.52, respectively. In general, Cmax refers to the peak of the concentration-time curve. Take `Clc1ccc2c(c1)CCc1cccnc1C2=C1CCNCC1` [DESLORATADINE]: the Cmax in data set [4] is 112 ng/g; in data set [5], 1180 ng/g; in data set [6], 549 ng/g; in data set [7] it was 843 ng/g. The Papp B→A is how fast a substance crosses the layer from the basolateral side. As usually defined, the Papp A→B is the apparent permeability from the apical to the basolateral side of a cell layer. The efflux ratio is the permeability from basolateral to apical divided by that in the opposite direction, in the common usage. For the compound `CC(C)NCC(O)COc1cccc2ccccc12` (centres undefined) [PROPRANOLOL], the Papp B→A at 1 h, 5 µM in [8] came to 20.5 ×10⁻⁶ cm/s. In data set [9], the Papp A→B at 1 h, 5 µM came to 34.8 ×10⁻⁶ cm/s. Besides, the efflux ratio at 1 h, 5 µM in data set [10] was found to be 0.59.
